In US20240025891A1 (Celgene Corporation, priority 2020, published 2024):

System: Dirofilaria immitis microfilariae and 4th stage larvae (L4)
Experiment: Heartworm screen Dirofilaria immitis (DiMF and DiL4 assays)
Assay type: cell-based
Settings: read-out: D. immitis Act class
Experimental: Heartworm Screen Dirofilaria immitis (D. immitis)
(§1) Dirofilaria immitis, Microfilaria (DiMF) Assay. Compounds were dissolved and serially diluted in DMSO. Aliquots were spotted to the empty wells of assay plates. Media and microfilariae of Dirofilaria immitis were added to each well to dilute the test compounds to the desired concentrations. Assay plates were incubated for approximately 72 hours, and the larvae in each well were observed microscopically for drug effect. Microfilariae in each well were assessed subjectively for survival or paralysis, and results were reported as Minimum Effective Dose (MED).
as §1, with “L4 stage (DiL4)” for “Microfilaria (DiMF)”, “4th stage larvae (L4)” for “microfilariae”, “Larvae” for “Microfilariae”
Active and selective (DiL4 vs. DiMF potency) example compounds were subsequently evaluated in heartworm positive dog studies to correlate the in vitro selectivity profile with in vivo effects on circulating microfilariae.

| SMILES | IC50 [nM] |
| --- | --- |
| c1ccc(-c2csc(Nc3cc4[nH]ccc4cn3)n2)nc1 [Example 136, 4-(pyridin-2-yl)-N-(1H-pyrrolo [3,2-c]pyridin-6-yl)thiazol-2-amine] | 500 to 5000 |
| Cc1ccnc(Nc2nc(-c3ncccc3C#N)cs2)c1 [Example 92, 2-(2-(4-methylpyridin-2-ylamino)thiazol-4-yl)nicotinonitrile] | 500 to 5000 |
| Cc1cc(C(F)(F)F)cnc1Nc1nc(-c2cc3c(cn2)N(C)CC3)cs1 [Example 97, 4-(1-methyl-2,3-dihydro-1H-pyrrolo[2,3-c]pyridin-5-yl)-N-(3-methyl-5-(trifluoromethyl)pyridin-2-yl)thiazol-2-amine] | < 200 |
| Cc1ccnc(Nc2nc(-c3cc(OC4COC4)ccn3)cs2)c1 [Example 102, N-(4-methylpyridin-2-yl)-4-(4-(oxetan-3-yloxy)pyridin-2-yl)thiazol-2-amine] | 500 to 5000 |
| c1ccc(-c2csc(Nc3cc(C4CC4)ccn3)n2)nc1 [Example 176, N-(4-cyclopropyl-pyridin-2-yl)-4-(pyridin-2-yl)thiazol-2-amine] | < 200 |
| CC(C)c1cnc(Nc2nc(-c3ccccn3)cs2)cc1C(F)(F)F [Example 127, N-(5-isopropyl-4-(trifluoro-methyl)pyridin-2-yl)-4-(pyridin-2-yl)thiazol-2-amine] | < 200 |
| Cc1ccnc(-c2csc(Nc3ncccc3C)n2)c1 [Example 222, N-(3-methylpyridin-2-yl)-4-(4-methylpyridin-2-yl)thiazol-2-amine] | < 200 |
| Cc1ccnc(Nc2nc(-c3ccccn3)c(C(C)(C)C)s2)c1 [Example 181, 5-tert-butyl-N-(4-methylpyridin-2-yl)-4-(pyridin-2-yl)thiazol-2-amine] | 500 to 5000 |
| c1ccc(-c2csc(Nc3cc(-c4ncccn4)ccn3)n2)nc1 [Example 174, 4-(pyridin-2-yl)-N-(4-(pyrimidin-2-yl)pyridin-2-yl)thiazol-2-amine] | 200 to 500 |
| c1ccc(-c2csc(Nc3cc(C4CCC4)ccn3)n2)nc1 [Example 168, N-(4-cyclobutyl-pyridin-2-yl)-4-(pyridin-2-yl)thiazol-2-amine] | < 200 |
| Cc1cnc(Nc2nc(-c3ccccn3)cs2)cc1C(F)(F)F [Example 129, N-(5-methyl-4-(trifluoro-methyl)pyridin-2-yl)-4-(pyridin-2-yl)thiazol-2-amine] | < 200 |
| c1ccc(-c2csc(Nc3ccc(C4CCCC4)cn3)n2)nc1 [Example 138, N-(5-cyclopentyl-pyridin-2-yl)-4-(pyridin-2-yl)thiazol-2-amine] | < 200 |
| Cc1ccnc(Nc2nc(-c3cc(Cl)ccn3)cs2)c1 [Example 223, 4-(4-chloropyridin-2-yl)-N-(4-methylpyridin-2-yl)thiazol-2-amine] | < 200 |
| c1ccc(-c2csc(Nc3ccc4cc[nH]c4n3)n2)nc1 [Example 134, 4-(pyridin-2-yl)-N-(1H-pyrrolo [2,3-b]pyridin-6-yl)thiazol-2-amine] | 500 to 5000 |
| COc1cccnc1-c1csc(Nc2cc(C)ccn2)n1 [Example 7] | 200 to 500 |
| CNC(=O)c1ccc(-c2ccnc(Nc3nc(-c4ccccn4)cs3)c2)cc1 [Example 171, N-methyl-4-(2-(4-(pyridin-2-yl)thiazol-2-ylamino)pyridin-4-yl)benzamide] | 500 to 5000 |
| Cc1ccnc(-c2csc(Nc3ncccc3-c3ccccc3)n2)c1 [Example 99, 4-(4-methylpyridin-2-yl)-N-(3-phenylpyridin-2-yl)thiazol-2-amine] | < 200 |
| O=C(NC1CC1)c1ccnc(Nc2nc(-c3ccccn3)cs2)c1 [Example 170, N-cyclopropyl-2-(4-(pyridin-2-yl)thiazol-2-ylamino) isonicotinamide] | 500 to 5000 |
| Cc1ccnc(Nc2nc(-c3cccnc3)cs2)c1 [Example 226, N-(4-methylpyridin-2-yl)-4-(pyridin-3-yl)thiazol-2-amine] | 200 to 500 |
| CCCc1ccnc(Nc2nc(-c3ccccn3)cs2)c1 [Example 172, N-(4-propylpyridin-2-yl)-4-(pyridin-2-yl)thiazol-2-amine] | < 200 |
| CCOc1ccnc(-c2csc(Nc3cc(C)ccn3)n2)c1 [Example 224, 4-(4-ethoxypyridin-2-yl)-N-(4-methylpyridin-2-yl)thiazol-2-amine] | 200 to 500 |
| CC(=O)N(C)c1cc(C(F)(F)F)cnc1Nc1nc(-c2cc3c(cn2)N(C)CC3)cs1 [Example 76, N-methyl-N-(2-(4-(1-methyl-2,3-dihydro-1H-pyrrolo[2,3-c]pyridin-5-yl)thiazol-2-ylamino)-5-(trifluoromethyl)pyridin-3-yl)acetamide] | 500 to 5000 |
| CC(=O)N(C)c1cc(C(F)(F)F)cnc1Nc1nc(-c2cc(OC(C)C)ccn2)cs1 [Example 82, N-(2-(4-(4-isopropoxypyridin-2-yl)thiazol-2-ylamino)-5-(trifluoromethyl)pyridin-3-yl)-N-methylacetamide] | 200 to 500 |
| COc1ccnc(-c2csc(Nc3ncc(C(F)(F)F)cc3N(C)C(C)=O)n2)c1 [Example 96, N-(2-(4-(4-methoxypyridin-2-yl)thiazol-2-ylamino)-5-(trifluoromethyl)pyridin-3-yl)-N-methylacetamide] | 200 to 500 |
| CCOc1cnc(-c2csc(Nc3ncccc3C)n2)c(C)c1 [Example 75, 4-(5-ethoxy-3-methylpyridin-2-yl)-N-(3-methylpyridin-2-yl)thiazol-2-amine] | < 200 |
| Cc1ccc(-c2csc(Nc3cc(C)ccn3)n2)nc1 [Example 1, N-(4-Methylpyridin-2-yl)-4-(5-methylpyridin-2-yl)thiazol-2-amine] | < 200 |
| CCCCc1ccnc(Nc2nc(-c3ccccn3)cs2)c1 [Example 167, N-(4-butylpyridin-2-yl)-4-(pyridin-2-yl)thiazol-2-amine] | < 200 |
| CCOc1cccnc1-c1csc(Nc2cc(C)ccn2)n1 [Example 72, 4-(3-ethoxypyridin-2-yl)-N-(4-methylpyridin-2-yl)thiazol-2-amine] | < 200 |
